The record followed here is patent US8608919B2, “Impedimetric sensor and applications thereof” (Consejo Superior de Investigaciones Científicas, priority 2007, dated 2013).

What all share (format): binding, rabbits of the New Zealand variety
For assay [1], the system named is antiserums produced for sulphonamide-type antibiotics. Nature of the assay: Direct ELISA format with HRP enzymatic tracers of competition haptens (preliminary studies). The source says:
Biological molecular receptors (antibodies) were designed and produced to analyse antibiotics from the family of sulfamides. The preparation of the biological receptors was approached by means of the design of immunization haptens using molecular modelling strategies. As a consequence of these studies, the synthesis of 2 haptens or antigens was proposed. One of them (hapten 1) kept the greater part of the structure of the sulfamides, while the second (hapten 2) was only a fragment which conserved the part common to most of the compounds of this family of antibiotics. The two haptens were combined to the HCH (horseshoe crab hemocyanin) protein and to the BSA (bovine serum albumin) protein by using methods described in the literature. The covalent bonding of the haptens or antigens and the quantification of the number of the remainder of antigens bonded to the protein was carried out by means of a mass spectrometer. Following this, rabbits of the New Zealand variety were immunised with these antigens by applying a six-month long immunisation protocol, during which the progress of the immune response was controlled by means of extracting small blood samples.
With the aim of evaluating the avidity of the antiserums produced by the sulphonamide-type antibiotics, it was necessary to establish a competitive-type immunochemical assay. […]
(An ELISA detects its analyte on a solid surface through an enzyme-linked reagent.)

In assay [2] the test system is specific sulfamide antiserum. Nature of the assay: ELISA immunoassay, calibration with sulfapyridine. Particulars: [Ab] 1/8000, [AT] 0.625 μg/ml, from four-parameter fit of calibration curve.
The test system of assay [3] is specific sulfamide antiserum (#155). Nature of the assay: Impedimetric immunosensor of the invention, competitive immunoassay calibrated with sulfapyridine. Conditions: Sensor; [Ab] 1/2000; [AT] 0.8 μg/ml (2d-BSA); from four-parameter fit of calibration curve. The procedure:
Before proceeding to the functionalization, the electrodes were cleaned in a solution of 70% absolute ethanol and 30% Milli-Q water. Afterwards, the devices were submerged in a solution of 2.5% NaOH and Milli-Q water for 10 minutes, followed by a rinsing in 100 mL of Milli-Q water, in order to neutralize the action of the NaOH. Finally, the electrodes were cleaned in ethanol and dried in nitrogen current.
The electrodes were introduced into a GPTS [(3-glycidoxipropil) trimethoxisilane] solution with 2.5% ethanol anhydride for three hours, at ambient temperature and with orbital agitation. After this time had passed, the devices were washed in ethanol and dried in nitrogen current. […]
Biological molecular receptors (antibodies) were designed and produced to analyse antibiotics from the family of sulfamides. […] The covalent bonding of the haptens or antigens and the quantification of the number of the remainder of antigens bonded to the protein was carried out by means of a mass spectrometer. […]
Sulfapyridine pattern solutions prepared in PBST (0.64 nM-50000 nM, in PBST) were added to the electrodes (150 μL/electrode), followed by a solution with the specific sulfamide antiserum (#155) obtained (1/2000 in PBST, 150 μL/electrode). […] The reaction was measured in a low conductivity solution. […]

pIC50: −log10 of the molar value. Values after ≈ are worked out from the molar mass of the structure shown.

As usually defined, the IC50 is the concentration that inhibits the measured activity by half. Usually pIC50 stands for the IC50 on a negative log10 scale, so that one unit is a factor of ten. Read a low pIC50 as a high IC50.

In turn, `Nc1ccc(S(=O)(=O)Nc2cnccn2)cc1` [sulfapyrazine] displayed an IC50 in assay [1] of about 9 ng/mL (≈ 0.036 µM). With `Nc1ccc(S(=O)(=O)Nc2ccccn2)cc1` [sulfapyridine], the pIC50 in assay [2] was 8.03; in assay [3] it was 7.85.
